# In ChEMBL document CHEMBL4028841, “The identification of novel acid isostere based inhibitors of the VPS10P family sorting receptor Sortilin” (Bioorg Med Chem Lett, 2017):
# Active and inactive are the calls of the source. The rule behind the calls is not given here.
# Target: T1, Sortilin (Homo sapiens, UniProt Q99523)
# T1 sequence (Q99523 whole entry): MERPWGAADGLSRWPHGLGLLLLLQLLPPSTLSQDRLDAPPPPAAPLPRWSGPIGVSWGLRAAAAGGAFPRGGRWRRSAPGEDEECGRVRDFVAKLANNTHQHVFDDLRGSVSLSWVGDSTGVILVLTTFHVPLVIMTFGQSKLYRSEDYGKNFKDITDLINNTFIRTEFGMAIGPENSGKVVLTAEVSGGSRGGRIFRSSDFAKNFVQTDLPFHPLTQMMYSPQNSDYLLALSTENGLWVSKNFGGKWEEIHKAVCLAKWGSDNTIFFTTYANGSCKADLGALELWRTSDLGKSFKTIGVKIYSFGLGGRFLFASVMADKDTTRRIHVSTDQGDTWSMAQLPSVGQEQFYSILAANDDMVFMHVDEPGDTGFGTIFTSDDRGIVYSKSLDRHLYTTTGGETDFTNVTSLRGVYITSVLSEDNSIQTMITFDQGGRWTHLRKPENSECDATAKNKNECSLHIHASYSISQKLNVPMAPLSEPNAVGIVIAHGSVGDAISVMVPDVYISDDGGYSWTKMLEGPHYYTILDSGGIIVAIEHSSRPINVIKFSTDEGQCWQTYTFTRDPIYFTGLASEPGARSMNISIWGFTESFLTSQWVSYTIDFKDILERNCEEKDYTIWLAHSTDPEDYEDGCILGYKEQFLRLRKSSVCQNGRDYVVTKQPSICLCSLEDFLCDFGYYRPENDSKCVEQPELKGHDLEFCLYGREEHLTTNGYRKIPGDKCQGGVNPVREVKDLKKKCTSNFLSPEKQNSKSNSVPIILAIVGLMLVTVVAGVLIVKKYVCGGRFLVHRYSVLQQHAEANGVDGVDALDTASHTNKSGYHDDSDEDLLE
# Experiment: Displacement of [3H]-neurotensin from human His6-tagged sortilin pretreated for 30 mins followed by [3H]-neurotensin addition after 6 hrs measured for 360 secs by SPA
# Settings: not given
row,Structure (SMILES),IC50 [µM]
1,O=C1CC(Cc2ccccc2)=NO1,79.4
2,CC(C)CC1=NOC(=O)C1,31.6
3,Cc1cccc(C(=O)NC2C(=O)N=NN2CCC(C)C)n1 (stereo not drawn),39.8
4,CC(C)CCc1noc(=O)[nH]1,126
5,CC(C)CCN1N=NC(=O)C1NC(=O)c1ccncc1 (stereo not drawn),20
6,CC(C)CCN1CC(=O)N=N1,63.1
7,CC(C)CCN1N=NC(=O)C1C(=O)Nc1cccnc1 (stereo not drawn),3.98
8,O=C1CC(c2ccccc2)=NO1,158
9,CC(=O)NC1C(=O)N=NN1CCC(C)C (stereo not drawn),31.6
10,CC(C)CCN1N=NC(=O)C1C(=O)Nc1ccncc1 (stereo not drawn),63.1
11,CC(C)CCC1=NOC(=O)C1,12.6
12,CNC(=O)C1C(=O)N=NN1CCC(C)C (stereo not drawn),39.8
13,O=c1[nH]nc(-c2ccccc2)o1,126
14,CC(C)CCc1n[nH]c(=O)o1,63.1
15,CC(C)CCN1N=NC(=O)C1C (stereo not drawn),79.4
16,O=C1CN(Cc2ccccc2)N=N1,126
17,CC(C)CCN1N=NC(=O)C1C(N)=O (stereo not drawn),50.1
18,Cc1cccc(NC(=O)C2C(=O)N=NN2CCC(C)C)n1 (stereo not drawn),12.6
19,CC(C)CCN1N=NC(=O)C1NC(=O)c1cccnc1 (stereo not drawn),12.6

# Tested on: not listed separately
# Experiment: Dissociation constant, pKa of the compound in 29 to 54% methanol
# Assay type: physicochemical
# Settings: not given
row,Structure (SMILES),pKa
1,CC(C)CCN1CC(=O)N=N1,7
2,Cn1nnc(O)c1CC(N)C(=O)O (stereo not drawn),6.4

# Tested on: MDR1
# Experiment: Permeability in MDCK cells expressing human MDR1 at 0.5 uM after 150 mins by LC-MS/MS analysis
# Assay type: ADME, cell-based, Canis lupus familiaris
# Settings: dog, read-out: permeability
row,Structure (SMILES),"Papp at 2.5 h, 0.5 µM [×10⁻⁶ cm/s]"
1,CC(C)CCN1CC(=O)N=N1,2.9
2,CC(C)CCN1N=NC(=O)C1C(=O)Nc1cccnc1 (stereo not drawn),2.9
3,CC(=O)NC1C(=O)N=NN1CCC(C)C (stereo not drawn),< 0.1
4,CNC(=O)C1C(=O)N=NN1CCC(C)C (stereo not drawn),< 0.1
5,Cc1cccc(NC(=O)c2ccc(C(F)(F)F)cc2C(=O)O)n1,0.3
6,CC(C)CCN1N=NC(=O)C1NC(=O)c1cccnc1 (stereo not drawn),< 0.1

# Target: Sortilin (Homo sapiens) (UniProt Q99523)
# Experiment: Displacement of [3H]-neurotensin from human His6-tagged sortilin at 500 uM pretreated for 30 mins followed by [3H]-neurotensin addition after 6 hrs measured for 360 secs by SPA relative to control
# Settings: not given
row,Structure (SMILES),Imax
1,CCC1C(=O)N=NN1CCC(C)C (stereo not drawn),57%
2,O=C1CC(c2cccc(Cl)c2)=NO1,30%
3,O=c1[nH]nc(-c2ccccc2Cl)o1,63%
4,O=C1CN(c2ccccc2)N=N1,50%
5,O=c1[nH]c(-c2ccccc2Cl)no1,inactive
6,O=C1CN(c2cccc(Cl)c2)N=N1,inactive
7,O=C1CN(c2ccc(Cl)cc2)N=N1,inactive
8,Oc1nc(-c2ccccc2)no1,35%
9,CC(C)CCN1N=NC(=O)C1C(C)C (stereo not drawn),< 20%
10,CC(C)CN1CC(=O)N=N1,69%
11,O=c1cc(-c2ccccc2)o[nH]1,inactive
12,O=C1CC(c2ccccc2Cl)=NO1,37%
13,CC(C)Cc1n[nH]c(=O)o1,60%
14,O=c1[nH]c(Cc2ccccc2)no1,55%
15,O=c1[nH]nc(-c2ccc(Cl)cc2)o1,inactive
16,O=c1[nH]c(-c2cccc(Cl)c2)no1,42%
17,O=C1CC(c2ccc(Cl)cc2)=NO1,inactive
18,O=C1CN(c2ccccc2Cl)N=N1,inactive
19,O=c1[nH]nc(Cc2ccccc2)o1,54%
20,O=c1[nH]nc(-c2cccc(Cl)c2)o1,inactive
21,O=c1[nH]c(-c2ccc(Cl)cc2)no1,inactive
